From PubChem BioAssay (NCI)
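Following 48 hours of exposure in 96-well plates, responses at five concentrations were used to interpolate endpoints linearly. TGI denotes the concentration required for complete inhibition of growth.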

Assays:
Experiment in all cases: growth of human tumour cells (NCI), 48 h
T-47D breast = system: T-47D breast
K-562 leukemia = system: K-562 leukemia
NCI-H522 lung = system: NCI-H522 lung
A549 NSCLC = system: A549 NSCLC
IGROV1 ovarian = system: IGROV1 ovarian
SNB-75 CNS = system: SNB-75 CNS
NCI-H460 lung = system: NCI-H460 lung
NCI-H226 lung = system: NCI-H226 lung
SK-MEL-2 melanoma = system: SK-MEL-2 melanoma
SK-MEL-28 melanoma = system: SK-MEL-28 melanoma
SF-539 CNS = system: SF-539 CNS
A498 renal = system: A498 renal
HCT-116 colon = system: HCT-116 colon
OVCAR-8 ovarian = system: OVCAR-8 ovarian
BT-549 breast = system: BT-549 breast
OVCAR-5 ovarian = system: OVCAR-5 ovarian
HS 578T breast = system: HS 578T breast
LOX IMVI melanoma = system: LOX IMVI melanoma
SF-295 CNS = system: SF-295 CNS

Structure (SMILES)	TGI (T-47D breast) [µM]	TGI (K-562 leukemia) [µM]	TGI (NCI-H522 lung) [µM]	TGI (A549 NSCLC) [µM]	TGI (IGROV1 ovarian) [µM]	TGI (SNB-75 CNS) [µM]	TGI (NCI-H460 lung) [µM]	TGI (NCI-H226 lung) [µM]	TGI (SK-MEL-2 melanoma) [µM]	TGI (SK-MEL-28 melanoma) [µM]	TGI (SF-539 CNS) [µM]	TGI (A498 renal) [µM]	TGI (HCT-116 colon) [µM]	TGI (OVCAR-8 ovarian) [µM]	TGI (BT-549 breast) [µM]	TGI (OVCAR-5 ovarian) [µM]	TGI (HS 578T breast) [µM]	TGI (LOX IMVI melanoma) [µM]	TGI (SF-295 CNS) [µM]
C[P+](c1ccccc1)(c1ccc(Cl)cc1)c1ccc(Cl)cc1	49.3	74.4	33.1	> 100	21.8	46	> 100	88.6	46.3	29	65.4	98.3	44.9	36.6	68.3	71.5	78.2	32.5	–
CC(=O)Oc1c2ccsc2c(OC(C)=O)c2ccsc12	4.09	> 100	1.15	–	3.5	0.753	3.57	5.07	1.98	1.24	0.913	3.29	2.21	1.22	1.86	–	0.951	0.357	2.41
C/C(=N\Nc1nc2ccccc2[nH]1)c1cnccn1	> 68.4	> 100	–	> 40.5	> 38.4	> 53.9	> 100	–	26	–	–	7.75	> 38	> 93.3	> 85.3	> 100	> 100	> 30.5	> 76.5
O=C(COc1ccccc1)N(C(=O)N1CCN(c2ccccc2)CC1)S(=O)(=O)c1ccccc1	87.6	> 100	> 100	> 100	–	96	> 100	> 100	> 100	> 100	> 100	> 100	> 100	> 100	> 100	> 100	> 100	> 100	> 100
Cc1cn(Cc2cccc(C3=NCCCN3)c2)c(=O)n(Cc2cccc(C3=NCCCN3)c2)c1=O	> 100	> 100	> 100	> 100	> 100	> 100	> 100	–	> 100	> 100	–	> 100	> 100	> 100	> 100	> 100	> 100	> 100	> 100
C=CCOCn1cc(F)c(=O)[nH]c1=O	> 100	> 100	> 100	> 100	> 100	> 100	> 100	> 100	–	> 100	> 100	> 100	> 100	> 100	> 100	–	> 100	> 100	> 100
O=[N+]([O-])c1cc(-[n+]2cc([O-])on2)ccc1Cl	38.8	> 100	31.7	> 100	64.5	66.3	> 100	> 100	46.3	29.6	–	–	39.8	49.7	49	32.4	31.3	33.7	51.5
